Converted amounts (≈) assume the structure as drawn. Like-named read-outs stand apart in the source and are kept apart here.
Key:
cytomegalovirus = test: Anti-viral activity against cytomegalovirus, microplaque reduction method; type: cell-based, human cytomegalovirus (AD 169 strain); conditions: for EC50: Human betaherpesvirus 5, MRC5, 144 h, human cytomegalovirus AD 169 strain, MRC-5 cells, 37° C., day 6, read-out: ED50 (50% effective density); for SI (selectivity index, CC50/ED50): cytomegalovirus
Protocol: Determination of Anti-viral Activity against Cytomegalovirus
(§1) The anti-viral activity against cytomegalovirus was also determined by the microplaque reduction method in the same manner as in Example 1. That is, MRC-5 cells were cultured in a 96-well microtiter plate until the cells reached the confluent state. Each of the compounds being tested was added to the wells to which a preparation of human cytomegalovirus (AD 169 strain) was subsequently added. The plate was cultured at 37° C. in a CO2 incubator. On day 6 after the culture, physiological saline containing 10% formalin was added to the wells and the plate was allowed to stand overnight to fix the cells to the wells. After washing the plate, the cells were stained with a crystal violet solution and then washed. The focus formation by cytomegalovirus was observed microscopically and the number of the foci was counted.
(§2) The concentration of each compound that inhibits by 50% of the number of foci observed in a group containing no compound was determined as a 50% effective density (ED50).
(§3) The selectivity index (SI), which is the ratio of the cytotoxic concentration to the anti-virally effective density, was determined by the equation: […]

[1] = Cytotoxicity in virus-free MRC-5 cells (Example 2); type: cell-based; conditions: human
Protocol: as §1
The virus-free group in which, in place of the preparation of cytomegalovirus, the culture medium was added to the MRC-5 cells was also cultured in the same manner.

varicella-zoster virus = test: Anti-viral activity against varicella-zoster virus, microplaque reduction method; type: cell-based, varicella-zoster virus (HOSEN strain); conditions: for EC50: Human alphaherpesvirus 3, MRC5, 72 h, varicella-zoster virus HOSEN strain, MRC-5 cells, 35° C., day 3, read-out: ED50 (50% effective density); for SI (selectivity index, CC50/ED50): varicella-zoster virus
Protocol: Determination of Anti-viral Activity against Varicella-zoster Virus
(§4) The anti-viral activity against varicella-zoster virus was determined by the microplaque reduction method. That is, MRC-5 cells were cultured in a 96-well microtiter plate until the cells reached the confluent state. Each of the compounds being tested was added to the wells to which a preparation of varicella-zoster virus (HOSEN strain) was subsequently added. The plate was cultured at 35° C. in a CO2 incubator. On day 3 after the culture, physiological saline containing 10% formalin was added to the wells and the plate was allowed to stand overnight to fix the cells to the wells. After wasing the plate, the cells were stained with a crystal violet solution and then washed. The focus formation by varicella-zoster virus was observed microscopically and the number of the foci was counted.
as §2, §3

[2] = Cytotoxicity in virus-free MRC-5 cells (Example 1); type: cell-based; conditions: human
Protocol: as §4
The virus-free group in which, in place of the preparation of varicella-zoster virus, the culture medium was added to the MRC-5 cells was also cultured in the same manner.

[3] = Acute toxicity test, variation of body weight of mice; type: in vivo, Mouse: ICR; conditions: 1 or 2 g/kg ip., male ICR mice
Protocol: With respect to 2-thio-5-iodocytosine arabinoside (5-I-AraSC) which was evidenced to have the anti-viral effect in vitro, the acute toxicity was also determined in the following manner.
Mouse: ICR, male, 4 weeks;
Drug: 5-I-AraSC, 1 or 2 g/kg, ip., n=6.
The drug 5-I-AraSC was administered in a dosage of 1 or 2 g/kg to each mouse intraperitoneally, and the variation of a body weight of each mouse was examined.

[4] = MRC-5 cells, virus-free, cultured as in varicella-zoster test (day 3), read-out: CC50 (50% cytotoxic concentration)

Compound | EC50 (cytomegalovirus) | SI (selectivity index, CC50/ED50) (cytomegalovirus) | CC50 at 144 h ([1]; mrc-5 cells) | EC50 (varicella-zoster virus) | SI (selectivity index, CC50/ED50) (varicella-zoster virus) | CC50 at 72 h ([2]; mrc-5 cells) | CC50 at 144 h ([1]; MRC-5 cells, virus-free, cultured as in cytomegalovirus test (day 6), read-out: CC50 (50% cytotoxic concentration)) | CC50 at 72 h [2, 4] | death of the mice ([3]; during the test) | acute toxicity ([3]; overall conclusion)
Nc1nc(=S)n([C@@H]2O[C@H](CO)[C@@H](O)[C@@H]2O)cc1Br [2-thio-5-bromocytosine arabinoside] | 2.4 µg/mL (≈ 7.1 µM) | > 42 | > 100 µg/mL | 7.5 µg/mL (≈ 22.2 µM) | > 13 | > 100 µg/mL |  |  |  | 
Nc1nc(=S)n([C@@H]2O[C@H](CO)[C@@H](O)[C@@H]2O)cc1F [2-thio-5-fluorocytosine arabinoside] | 0.16 µg/mL (≈ 0.577 µM) | > 625 |  | 1.65 µg/mL (≈ 5.95 µM) | > 60 |  | > 100 µg/mL | > 100 µg/mL |  | 
Nc1nc(=S)n([C@@H]2O[C@H](CO)[C@@H](O)[C@@H]2O)cc1I [2-thio-5-iodocytosine arabinoside] | 0.26 µg/mL (≈ 0.675 µM) | > 385 | > 100 µg/mL | 0.7 µg/mL (≈ 1.82 µM) | > 143 | > 100 µg/mL |  |  | No death of the mice was observed during the test | not so strong
O=c1[nH]c(=S)n([C@@H]2O[C@H](CO)[C@@H](O)[C@@H]2O)cc1I [2-thio-5-iodouracil arabinoside] |  |  |  | 3.1 µg/mL (≈ 8.03 µM) | 6.5 |  |  | 20 µg/mL (≈ 51.8 µM) |  | 

— patent US6121248A, “Anti-viral agent” (priority 1998, dated 2000)
